In patent publication US20230146455A1, “TREATMENT OF INFLAMMATORY DISEASES WITH PEPTIDES AND PHARMACEUTICAL COMPOSITIONS” (Yuyu Pharma, Inc., priority 2020, published 2023):
“And” between values parts separate entries of the source, which are not always exact repeats. Equal values may be shown once. Where a SMILES comes first, the peptide text is derived from it. [ ]: non-standard residue; d: D form. Hyp = O=C(O)[C@@H]1C[C@@H](O)CN1

Legend:
MMP-9 = experiment: Example 8 main study Luminex, LPS hPBMCs: MMP-9; format: cell-based, human; conditions: PBMC + LPS(5 ug/ml)
Description: (§1) Human PBMCs were pretreated with YY-101, YDE-011, YDE-043 or reference compound; Xiidra® at various concentration (ranging from […] to 500 nM) for 2 h before stimulation. An equal volume of 0.5% DMSO was used as a vehicle control. Then, the cells were treated with LPS at 5 ug/ml, which was selected based on the pilot study. The supernatants from treated cells were harvested at 24 h and placed in a 96 well for Luminex cytokine & chemokine profiling using a Luminex 200 multiplex assay (Luminex; R&D system, USA).
(§2) The main study arm with triplicate wells per group in a 24-well plate: • 1. Blank • 2. PBMC: 0.5% DMSO • 3. PBMC+LPS (5 ug/ml) • 4. PBMC+YY-101 500 nM • 5. PBMC+YY-101 50 nM • 6. PBMC+YY-101 5 nM • 7. PBMC+YY-101 0.5 nM • 8. PBMC+LPS (5 ug/ml)+Xiidra® 500 nM • 9. PBMC+LPS (5 ug/ml)+Xiidra® 50 nM • 10. PBMC+LPS (5 ug/ml)+Xiidra® 5 nM • 11. PBMC+LPS (5 ug/ml)+Xiidra® 0.5 nM • 12. PBMC+LPS (5 ug/ml)+Xiidra® 0.05 nM • 13. PBMC+LPS (5 ug/ml)+Xiidra® 0.005 nM • 14. PBMC+LPS (5 ug/ml)+YY-101 500 nM • 15. PBMC+LPS (5 ug/ml)+YY-101 50 nM • 16. PBMC+LPS (5 ug/ml)+YY-101 5 nM • 17. PBMC+LPS (5 ug/ml)+YY-101 0.5 nM • 18. PBMC+LPS (5 ug/ml)+YY-101 0.05 nM • 19. PBMC+LPS (5 ug/ml)+YY-101 0.005 nM • 20. PBMC+LPS (5 ug/ml)+YDE-011 500 nM • 21. PBMC+LPS (5 ug/ml)+YDE-011 50 nM • 22. PBMC+LPS (5 ug/ml)+YDE-011 5 nM • 23. PBMC+LPS (5 ug/ml)+YDE-011 0.5 nM • 24. PBMC+LPS (5 ug/ml)+YDE-011 0.05 nM • 25. PBMC+LPS (5 ug/ml)+YDE-011 0.005 nM • 26. PBMC+LPS (5 ug/ml)+YDE-043 500 nM • 27. PBMC+LPS (5 ug/ml)+YDE-043 50 nM • 28. PBMC+LPS (5 ug/ml)+YDE-043 5 nM • 29. PBMC+LPS (5 ug/ml)+YDE-043 0.5 nM • 30. PBMC+LPS (5 ug/ml)+YDE-043 0.05 nM • 31. PBMC+LPS (5 ug/ml)+YDE-043 0.005 nM
(§3) Multiplex assay was used to measure 30 cytokines and chemokines. The 1:200 diluted cell supernatant and serial dilution of the standard were dispensed into a 96 well plate at 50 ul/well. Then, the pre-mixed cocktail of antibody-coated magnetic beads was dispensed at 50 ul/well and incubated at room temperature for 2 h in a horizontal orbital microplate shaker at 800±500 rpm. The beads were washed using a magnetic device to prevent loss. The biotin-antibody was dispensed in 50 ul of each well and incubated at room temperature for 1 h in a shaker at 800±500 rpm. After washing, streptavidin-PE was added at 50 ul/well and incubated at room temperature for 30 min in a shaker under the same conditions. Finally, after washing, wash buffer (100 ul/well) was added to the plate and incubated in a shaker for 2 min. The Luminex™ 200 setting were set according to the manufacturer's protocol. The data was calculated with a standard five-parameter logistic nonlinear regression analysis of the data (xPonent software 4.2, USA). Results were presented as concentration (ng/ml or pg/ml).

MMP-3 = experiment: Example 8 main study Luminex, LPS hPBMCs: MMP-3; format: cell-based, human; conditions: for MMP-3 Concentration: single replicates; for LPS-induced MMP3 (in words): at as low as 5 μM, LPS 5 ug/mL 24 hrs
Description: as §1, §2, §3

[1] = test article 0.005 nM, single replicates
[2] = test article 0.05 nM, single replicates
[3] = test article 0.5 nM, single replicates
[4] = test article 5 nM, single replicates
[5] = test article 50 nM, single replicates
[6] = test article 500 nM, single replicates
[7] = PBMC + LPS(5 ug/ml) + YDE043 0.005 nM
[8] = PBMC + LPS(5 ug/ml) + YDE043 0.05 nM
[9] = PBMC + LPS(5 ug/ml) + YDE043 0.5 nM
[10] = PBMC + LPS(5 ug/ml) + YDE043 5 nM
[11] = PBMC + LPS(5 ug/ml) + YDE043 50 nM
[12] = PBMC + LPS(5 ug/ml) + YDE043 500 nM
[13] = PBMC + LPS(5 ug/ml) + YDE011 0.005 nM
[14] = PBMC + LPS(5 ug/ml) + YDE011 0.05 nM
[15] = PBMC + LPS(5 ug/ml) + YDE011 0.5 nM
[16] = PBMC + LPS(5 ug/ml) + YDE011 5 nM
[17] = PBMC + LPS(5 ug/ml) + YDE011 50 nM
[18] = PBMC + LPS(5 ug/ml) + YDE011 500 nM

CC(C)C[C@H](NC(=O)[C@H](CCC(N)=O)NC(=O)CNC(=O)[C@@H]1C[C@@H](O)CN1)C(=O)NCC(=O)O [YDE-043] (H-[Hyp]GQLG-OH; N-terminus and C-terminus assumed)
Concentration (pg/ml), MMP-9 (MMP-9; test article 0.005 nM, Mean): 5247.2 pg/mL
MFI (Bead name: MMP-9) (MMP-9; test article 0.005 nM, Mean): 33.0
Concentration (pg/ml), MMP-9 (MMP-9; [1]): 3994.2 pg/mL and 5555.3 pg/mL and 6192.0 pg/mL
MFI (Bead name: MMP-9) (MMP-9; [1]): 29.0 and 34.0 and 36.0
Concentration (pg/ml), MMP-9 (MMP-9; test article 0.05 nM, Mean): 3943.4 pg/mL
MFI (Bead name: MMP-9) (MMP-9; test article 0.05 nM, Mean): 28.8
Concentration (pg/ml), MMP-9 (MMP-9; [2]): 3994.2 pg/mL and 4148.1 pg/mL and 3688.0 pg/mL
MFI (Bead name: MMP-9) (MMP-9; [2]): 29.0 and 29.5 and 28.0
Concentration (pg/ml), MMP-9 (MMP-9; test article 0.5 nM, Mean): 3536.4 pg/mL
MFI (Bead name: MMP-9) (MMP-9; test article 0.5 nM, Mean): 27.5
Concentration (pg/ml), MMP-9 (MMP-9; [3]): 3688.0 pg/ml (2×) and 3233.2 pg/ml
MFI (Bead name: MMP-9) (MMP-9; [3]): 28.0 (2×) and 26.5
Concentration (pg/ml), MMP-9 (MMP-9; test article 5 nM, Mean): 3842.1 pg/mL
MFI (Bead name: MMP-9) (MMP-9; test article 5 nM, Mean): 28.5
Concentration (pg/ml), MMP-9 (MMP-9; [4]): 4302.5 pg/mL and 3688.0 pg/mL and 3535.8 pg/mL
MFI (Bead name: MMP-9) (MMP-9; [4]): 30.0 and 28.0 and 27.5
Concentration (pg/ml), MMP-9 (MMP-9; test article 50 nM, Mean): 3892.8 pg/mL
MFI (Bead name: MMP-9) (MMP-9; test article 50 nM, Mean): 28.7
Concentration (pg/ml), MMP-9 (MMP-9; [5]): 3688.0 pg/ml (2×) and 4302.5 pg/ml
MFI (Bead name: MMP-9) (MMP-9; [5]): 28.0 (2×) and 30.0
Concentration (pg/ml), MMP-9 (MMP-9; test article 500 nM, Mean): 4100.4 pg/mL
MFI (Bead name: MMP-9) (MMP-9; test article 500 nM, Mean): 29.3
Concentration (pg/ml), MMP-9 (MMP-9; [6]): 3688.0 pg/ml (2×) and 4925.2 pg/ml
MFI (Bead name: MMP-9) (MMP-9; [6]): 28.0 (2×) and 32.0
MMP-3 Concentration, Mean (MMP-3; [7]): 7677.2 pg/mL
MMP-3 Concentration (MMP-3; [7]): 7173.5 pg/mL and 7776.9 pg/mL and 8081.3 pg/mL
MMP-3 Concentration, Mean (MMP-3; [8]): 7136.1 pg/mL
MMP-3 Concentration (MMP-3; [8]): 7061.2 pg/mL and 7248.5 pg/mL and 7098.6 pg/mL
MMP-3 Concentration, Mean (MMP-3; [9]): 7173.5 pg/mL
MMP-3 Concentration (MMP-3; [9]): 7098.6 pg/mL and 7248.5 pg/mL and 7173.5 pg/mL
MMP-3 Concentration, Mean (MMP-3; [10]): 7424.0 pg/mL
MMP-3 Concentration (MMP-3; [10]): 7474.3 pg/ml (2×) and 7323.6 pg/ml
MMP-3 Concentration, Mean (MMP-3; [11]): 7337.3 pg/mL
MMP-3 Concentration (MMP-3; [11]): 7701.1 pg/mL and 7398.9 pg/mL and 6911.8 pg/mL
MMP-3 Concentration, Mean (MMP-3; [12]): 7311.7 pg/mL
MMP-3 Concentration (MMP-3; [12]): 7098.6 pg/mL and 7663.2 pg/mL and 7173.5 pg/mL
LPS-induced MMP3 (in words) (MMP-3): significantly reduced

CC(C)C[C@H](NC(=O)CNC(=O)[C@H](CC(C)C)NC(=O)[C@H](CCC(N)=O)NC(=O)CNC(=O)[C@@H]1C[C@@H](O)CN1)C(=O)N[C@@H](C)C(=O)NCC(=O)N1CCC[C@H]1C(=O)N[C@@H](CCCCN)C(=O)O [YDE-011] (H-[Hyp]GQLGLAGPK-OH)
Concentration (pg/ml), MMP-9 (MMP-9; test article 0.005 nM, Mean): 4251.7 pg/mL
MFI (Bead name: MMP-9) (MMP-9; test article 0.005 nM, Mean): 29.8
Concentration (pg/ml), MMP-9 (MMP-9; [1]): 4148.1 pg/mL and 4612.9 pg/mL and 3994.2 pg/mL
MFI (Bead name: MMP-9) (MMP-9; [1]): 29.5 and 31.0 and 29.0
Concentration (pg/ml), MMP-9 (MMP-9; test article 0.05 nM, Mean): 4509.4 pg/mL
MFI (Bead name: MMP-9) (MMP-9; test article 0.05 nM, Mean): 30.7
Concentration (pg/ml), MMP-9 (MMP-9; [2]): 4612.9 pg/ml (2×) and 4302.5 pg/ml
MFI (Bead name: MMP-9) (MMP-9; [2]): 31.0 (2×) and 30.0
Concentration (pg/ml), MMP-9 (MMP-9; test article 0.5 nM, Mean): 3435.2 pg/mL
MFI (Bead name: MMP-9) (MMP-9; test article 0.5 nM, Mean): 27.2
Concentration (pg/ml), MMP-9 (MMP-9; [3]): 3384.2 pg/mL and 3688.0 pg/mL and 3233.2 pg/mL
MFI (Bead name: MMP-9) (MMP-9; [3]): 27.0 and 28.0 and 26.5
Concentration (pg/ml), MMP-9 (MMP-9; test article 5 nM, Mean): 3299.3 pg/mL
MFI (Bead name: MMP-9) (MMP-9; test article 5 nM, Mean): 26.7
Concentration (pg/ml), MMP-9 (MMP-9; [4]): 1907.3 pg/mL and 3688.0 pg/mL and 4302.5 pg/mL
MFI (Bead name: MMP-9) (MMP-9; [4]): 22.0 and 28.0 and 30.0
Concentration (pg/ml), MMP-9 (MMP-9; test article 50 nM, Mean): 2555.4 pg/mL
MFI (Bead name: MMP-9) (MMP-9; test article 50 nM, Mean): 24.2
Concentration (pg/ml), MMP-9 (MMP-9; [5]): 2636.1 pg/mL and 3688.0 pg/mL and 1342.1 pg/mL
MFI (Bead name: MMP-9) (MMP-9; [5]): 24.5 and 28.0 and 20.0
Concentration (pg/ml), MMP-9 (MMP-9; test article 500 nM, Mean): 2776.4 pg/mL
MFI (Bead name: MMP-9) (MMP-9; test article 500 nM, Mean): 24.8
Concentration (pg/ml), MMP-9 (MMP-9; [6]): 4612.9 pg/mL and 931.9 pg/mL and 2784.3 pg/mL
MFI (Bead name: MMP-9) (MMP-9; [6]): 31.0 and 18.5 and 25.0
MMP-3 Concentration, Mean (MMP-3; [13]): 7336.4 pg/mL
MMP-3 Concentration (MMP-3; [13]): 7512.0 pg/mL and 7323.6 pg/mL and 7173.5 pg/mL
MMP-3 Concentration, Mean (MMP-3; [14]): 7638.4 pg/mL
MMP-3 Concentration (MMP-3; [14]): 7474.3 pg/mL and 7928.9 pg/mL and 7512.0 pg/mL
MMP-3 Concentration, Mean (MMP-3; [15]): 7136.1 pg/mL
MMP-3 Concentration (MMP-3; [15]): 7248.5 pg/mL and 7098.6 pg/mL and 7061.2 pg/mL
MMP-3 Concentration, Mean (MMP-3; [16]): 6802.1 pg/mL
MMP-3 Concentration (MMP-3; [16]): 6282.7 pg/mL and 6800.1 pg/mL and 7323.6 pg/mL
MMP-3 Concentration, Mean (MMP-3; [17]): 6735.1 pg/mL
MMP-3 Concentration (MMP-3; [17]): 7248.5 pg/mL and 7474.3 pg/mL and 5482.5 pg/mL
MMP-3 Concentration, Mean (MMP-3; [18]): 6625.8 pg/mL
MMP-3 Concentration (MMP-3; [18]): 7776.9 pg/mL and 5374.6 pg/mL and 6725.8 pg/mL
LPS-induced MMP3 (in words) (MMP-3): significantly reduced
